Several values for one entry are separate records, joined by “and”; a condition that tells them apart may be missing. Equal entries are not always repeated. After the bases stand the sugars from the 5' end (letter, count) and the backbone: PS all phosphorothioate, else s phosphorothioate and o phosphodiester by linkage. Methylation of C is not given here. e = 2'-O-(2-methoxyethyl) (MOE); k = constrained ethyl (cEt); d = 2'-deoxy (DNA)

The first data set concerns the target IRF4. To be noted: ASO, MM.1R, 1 µM.
With GCCCGGGAGAGCGGAG (sugars k3 d10 k3, PS), the target mRNA inhibition is -32%.

On to “TCTATAGTGTTCCAGG (sugars kddddddddddkekek, PS)”, for which the target mRNA inhibition was 16%.

Regarding “ACTTTTAGAGAGGAGA (sugars kkddddddddddkeke, PS)”, the target mRNA inhibition was found to be 23%.

On to “GAAGTTTACACTGGAT (sugars e1 k2 d9 k2 e2, PS)”, for which the target mRNA inhibition turned out to be 48%.

For the sequence “TTGATGTGATAGCTGA (sugars kkdddddddddkekek, PS)”, the target mRNA inhibition was 24%.

As to GATCTCCATGGTGCAG (sugars k3 d10 k3, PS), the target mRNA inhibition is 22% and 12%.

Consider “AGTTCATGTAAAGTCT (sugars kkdddddddddekeke, PS)”, for which the target mRNA inhibition was 51% and 49%.

Turning to ACGCACCCGCAGCCCA (sugars k3 d10 k3, PS), the target mRNA inhibition is -10%.

With AGCTTACTGTGATTCT (sugars k3 d10 k3, PS), the target mRNA inhibition came to 13%.

Take “ATGTTAGCCAATTCCT (sugars kdddddddddkekeke, PS)”: the target mRNA inhibition is 0% and 5%.

Turning to “GGCACATCAATGTTTT (sugars kkdddddddddekeke, PS)”, the target mRNA inhibition was 22% and 26%.

Turning to CCTTAAGCTATTTGGT (sugars k3 d10 k3, PS), the target mRNA inhibition is -786%.

Regarding “AAGCTTGATAAAGGCT (sugars kkdddddddddkekek, PS)”, the target mRNA inhibition was -19%.

Staying with this data set, now noted: ASO, SK-MEL-28, 4 µM.
Turning to GACAGAGAGTCCGACG (sugars k3 d10 k3, PS), the target mRNA inhibition was -1%.

In the case of ATGAGATATTCCTCTC (sugars k3 d10 k3, PS), the target mRNA inhibition is 32%.

Consider TAAGAGGGCAGTCAAT (sugars k3 d10 k3, PS), for which the target mRNA inhibition stood at 17%.

On to GTAAGTGATAGGTATA (sugars k3 d10 k3, PS), for which the target mRNA inhibition was 76% and 68%.

Turning to TGTATACCAACGACAG (sugars k3 d10 k3, PS), the target mRNA inhibition came to 58%.

As to CTACATTTCTTATGCA (sugars k3 d10 k3, PS), the target mRNA inhibition is 39%.

On to CCAAAGGGTTCAGTGT (sugars k3 d10 k3, PS), for which the target mRNA inhibition stood at 26%.

As for GAAGAATAAACACCCC (sugars k3 d10 k3, PS), the target mRNA inhibition came to 52%.

Take GTCCTGCTTGCCCGCG (sugars k3 d10 k3, PS): the target mRNA inhibition is 31%.

As for ATCCTTAATTATGCAG (sugars k3 d10 k3, PS), the target mRNA inhibition was determined as 39%.

GAAAACTCTAACCCTA (sugars k3 d10 k3, PS): the target mRNA inhibition turned out to be 9%.

As for TGCTTGAGGTTTTCCT (sugars k3 d10 k3, PS), the target mRNA inhibition was 80% and 76%.

In the case of CTACATCTACTCCAGA (sugars k3 d10 k3, PS), the target mRNA inhibition was 22%.

As for GAGGGTCTGGAAACTC (sugars k4 d8 k4, PS), the target mRNA inhibition was determined as 8%.

Consider GTGCAAGATGACTCCA (sugars k3 d10 k3, PS), for which the target mRNA inhibition came to 56%.

As to ATAAGAAGCACTGGCA (sugars k3 d10 k3, PS), the target mRNA inhibition was 51%.

Regarding CGGAAGAAGGCACCTT (sugars k3 d10 k3, PS), the target mRNA inhibition was -12%.

Regarding TTCAGCCACGAGGCAC (sugars k3 d10 k3, PS), the target mRNA inhibition came out at 5%.

GCATCGAGATCAGTCT (sugars k3 d10 k3, PS): the target mRNA inhibition was found to be 57%.

CAGAGACGCGGTGAGA (sugars k3 d10 k3, PS): the target mRNA inhibition is -61%.

For the sequence GCTGAATTGTCATGAA (sugars k3 d10 k3, PS), the target mRNA inhibition was 36%.

Regarding AAACGACAAGTGGCGC (sugars k3 d10 k3, PS), the target mRNA inhibition was determined as 21%.

For ACCTTATGCTTGGCTC (sugars k3 d10 k3, PS), the target mRNA inhibition was found to be 31%.

For GAGAGCTACGCAATCT (sugars k3 d10 k3, PS), the target mRNA inhibition came out at 57%.

As to AGTATGAGAAACGGCC (sugars k3 d10 k3, PS), the target mRNA inhibition is 62%.

Source of the values: the OligoGym collection.
